Values joined by “and” are separate entries in the source; they are usually repeats but may differ in a detail not shown here. Equal values may be shown once.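 The compound was tested at five concentrations on cells cultured in 96-well plates, with a 48-hour exposure period. GI50: concentration for 50% inhibition of growth. TGI: total growth inhibition.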

Some test systems named below: OVCAR-4 ovarian; SR leukemia; SNB-75 CNS; HL-60(TB) leukemia; M14 melanoma; SK-OV-3 ovarian; SF-295 CNS; UACC-257 melanoma; BT-549 breast; IGROV1 ovarian.
Holding throughout (experiment): NCI-60 cell line screen, 48 h

For the compound `O=S(=O)(NCCNc1nccc(-c2c(-c3ccc(F)c(O)c3)nc3sccn23)n1)c1ccc(F)cc1`, the GI50 in the test with OVCAR-4 ovarian was 3.9 µM; in the test on SR leukemia it was 1.34 µM; with SNB-75 CNS, 1.55 µM; in the test with HL-60(TB) leukemia, 2.14 µM; in the test with M14 melanoma it was 0.364 µM; in the test with SK-OV-3 ovarian it was 4.28 µM. The GI50 was 3.41 µM with SF-295 CNS, 1.71 µM with UACC-257 melanoma, 2.99 µM with BT-549 breast and 2.43 µM in the test with IGROV1 ovarian. The TGI in the test with OVCAR-4 ovarian was 14.7 µM; in the test with SR leukemia, above 100 µM; in the test with SNB-75 CNS, 8.81 µM; in the test on HL-60(TB) leukemia it was 6.09 µM; in the test on M14 melanoma, 16.5 µM; with SK-OV-3 ovarian, 75.7 µM. In addition, the TGI in the test on SF-295 CNS was determined as 39.7 µM; in the test with UACC-257 melanoma, 18.3 µM; in the test with BT-549 breast, 23.4 µM; with IGROV1 ovarian, 7.96 µM.

On to `[C](#Cc1ccccc1)[Hg][C]#Cc1ccccc1`, for which the GI50 with OVCAR-4 ovarian was 18.6 µM; in the test with SR leukemia it was 23.5 µM; with SNB-75 CNS, above 100 µM; in the test with HL-60(TB) leukemia, 27.7 µM; with M14 melanoma, 75.1 µM; with SK-OV-3 ovarian, above 100 µM. Besides, the GI50 with SF-295 CNS was above 100 µM; in the test on UACC-257 melanoma, 22.5 µM; with BT-549 breast it was 22.1 µM; with IGROV1 ovarian, 29.7 µM. Further, the TGI in the test with OVCAR-4 ovarian was 45.8 µM; with SR leukemia, above 100 µM; in the test on SNB-75 CNS it was above 100 µM; in the test with HL-60(TB) leukemia, above 100 µM; in the test on M14 melanoma, above 100 µM; in the test with SK-OV-3 ovarian, above 100 µM. The TGI was above 100 µM in the test on SF-295 CNS, 41.6 µM in the test with UACC-257 melanoma, 43.2 µM in the test on BT-549 breast and 97.5 µM with IGROV1 ovarian.

As for `NC(=O)N/N=C(/CC1C(=O)Oc2ccccc21)c1ccccc1O` (centres undefined), the TGI with OVCAR-4 ovarian is above 100 µM; in the test on SR leukemia, 40.8 µM; in the test on SNB-75 CNS, above 100 µM; with HL-60(TB) leukemia, 51 µM; in the test with M14 melanoma it was above 100 µM; in the test with SK-OV-3 ovarian, above 100 µM. Also, the TGI in the test with SF-295 CNS, in the test on UACC-257 melanoma, in the test on BT-549 breast and in the test with IGROV1 ovarian was above 100 µM each time.

`CC1CCC2(NC1)OC1CC3C4CC=C5CC(O)CCC5(C)C4CCC3(C)C1C2C` (centres undefined): in the test on OVCAR-4 ovarian, the GI50 is 22.3 µM and 5.29 µM. Also, the TGI in the test on OVCAR-4 ovarian is 58.8 µM and 53.7 µM; in the test on SR leukemia, 9.63 µM and 12.4 µM; in the test on SNB-75 CNS it was 15.3 µM; in the test on HL-60(TB) leukemia, 31.5 µM and 29.9 µM; in the test with M14 melanoma it was above 100 µM; in the test with SK-OV-3 ovarian it was 69.2 µM and 38.6 µM. Besides, the TGI was 92.7 µM and > 64.3 µM with SF-295 CNS; above 100 µM in the test with UACC-257 melanoma; above 100 µM in the test with BT-549 breast; above 100 µM in the test with IGROV1 ovarian.

For the compound `O=C(NOC[C@H](O)CO)c1ccc(F)c(F)c1Nc1ccc(I)cc1F`, the GI50 in the test on OVCAR-4 ovarian is 8.76 µM and > 10 µM; in the test with SR leukemia, above 10 µM; in the test with SNB-75 CNS, 17.8 µM and > 10 µM; in the test on HL-60(TB) leukemia it was < 0.01 µM and 0.0166 µM; in the test on M14 melanoma it was < 0.01 µM and 0.00132 µM; with SF-295 CNS, 14.5 µM and > 10 µM. Besides, the GI50 with UACC-257 melanoma was < 0.01 µM and 0.00154 µM; in the test with BT-549 breast it was 10.8 µM and > 10 µM. Moreover, the TGI in the test on OVCAR-4 ovarian is above 100 µM; with SR leukemia it was above 100 µM; with SNB-75 CNS, above 100 µM; with HL-60(TB) leukemia, above 100 µM; in the test on M14 melanoma, 0.0969 µM; in the test with SK-OV-3 ovarian, above 100 µM. The TGI is above 100 µM in the test on SF-295 CNS; < 0.01 µM and 0.00947 µM in the test on UACC-257 melanoma; above 31.4 µM in the test with BT-549 breast; above 100 µM in the test on IGROV1 ovarian.

Regarding `CCOC(=O)Nc1nc2ccc(OC)cc2s1`, the GI50 in the test with OVCAR-4 ovarian was above 100 µM; in the test with SR leukemia, 8.14 µM; with SNB-75 CNS it was above 100 µM; in the test with HL-60(TB) leukemia it was above 100 µM; in the test with M14 melanoma, above 100 µM; in the test on SK-OV-3 ovarian it was above 100 µM. Moreover, the GI50 with SF-295 CNS, in the test with UACC-257 melanoma, in the test on BT-549 breast and with IGROV1 ovarian was above 100 µM each time. Also, the TGI in the test with OVCAR-4 ovarian, in the test on SR leukemia, in the test on SNB-75 CNS, in the test on HL-60(TB) leukemia, with M14 melanoma and in the test with SK-OV-3 ovarian was above 100 µM in each case. The TGI in the test with SF-295 CNS, with UACC-257 melanoma, with BT-549 breast and in the test on IGROV1 ovarian was above 100 µM in each case.

On to `COc1cc(F)c(F)c(Nc2ccc(I)cc2F)c1NS(=O)(=O)C1(C[C@H](O)CO)CC1`, for which the GI50 was 3.44 µM in the test with OVCAR-4 ovarian; 6.56 µM in the test with SR leukemia; 2.62 µM with SNB-75 CNS; 0.0219 µM in the test on HL-60(TB) leukemia; 0.0242 µM in the test on M14 melanoma; 3.42 µM in the test on SK-OV-3 ovarian. For the same compound, the GI50 in the test with SF-295 CNS was above 5.78 µM; with UACC-257 melanoma, 0.0239 µM; in the test with BT-549 breast, above 5.26 µM; with IGROV1 ovarian, 0.223 µM. The TGI in the test with OVCAR-4 ovarian was above 10 µM; in the test on SR leukemia, above 10 µM; in the test with SNB-75 CNS it was above 10 µM; with HL-60(TB) leukemia it was above 10 µM; with M14 melanoma, 1.59 µM; in the test with SK-OV-3 ovarian it was above 10 µM. Besides, the TGI in the test with SF-295 CNS is above 10 µM; in the test on UACC-257 melanoma, 0.2 µM; in the test with BT-549 breast, above 10 µM; in the test with IGROV1 ovarian, above 5.56 µM.

As to `COc1cc2ncn(-c3cc(OCc4ccccc4C(F)(F)F)c(C(=O)N(C)C)s3)c2cc1OC`, the GI50 is 18.1 µM with OVCAR-4 ovarian; above 25 µM in the test with SR leukemia; above 18.6 µM with SNB-75 CNS; above 25 µM in the test with HL-60(TB) leukemia; above 25 µM in the test with M14 melanoma; above 16 µM in the test with SK-OV-3 ovarian. In addition, the GI50 in the test with SF-295 CNS is above 22.6 µM; with UACC-257 melanoma, above 25 µM; in the test on BT-549 breast, above 21.9 µM; in the test on IGROV1 ovarian, above 25 µM. Moreover, the TGI in the test with OVCAR-4 ovarian, in the test on SR leukemia, with SNB-75 CNS, in the test on HL-60(TB) leukemia, in the test with M14 melanoma and in the test with SK-OV-3 ovarian was above 25 µM each time. For the same compound, the TGI in the test with SF-295 CNS, in the test on UACC-257 melanoma, in the test with BT-549 breast and in the test with IGROV1 ovarian was above 25 µM in each case.

The record behind these values is PubChem BioAssay (NCI).
